Experimental data: ChEMBL document CHEMBL1944549, “Small molecule inhibitors of BRAF in clinical trials” (Bioorg Med Chem Lett, 2012)
pEC50: −log10 of the molar value.

Columns and labels:
[1] = Antitumor activity against human melanoma cells harboring patient assessed as increase in survival of patient at 1000 mg/kg, iv administered 3 times a week; assay type: functional; details: Melanoma cell
SK-MEL-2 = experiment: Growth inhibition of human SK-MEL-2 cells expressing wild-type B-Raf and N-Ras2 Q61R mutant after 72 hrs by WST-1 assay; assay type: functional, cell-based; details: SK-MEL-2, 72 h
HCT-116 = experiment: Growth inhibition of human HCT116 cells expressing wild-type B-Raf and K-Ras2 G13D mutant after 72 hrs by WST-1 assay; assay type: functional, cell-based; details: HCT-116, 72 h
[2] = Antitumor activity against human melanoma cells assessed as increase in survival of patient at […], po administered BID; assay type: functional; details: Melanoma cell
[3] = Toxicity in po dosed cancer patient bearing B-Raf V600E mutation administered BID; assay type: organism-based; details: human, in vivo

CC(C)(C)c1nc(-c2cccc(NS(=O)(=O)c3c(F)cccc3F)c2F)c(-c2ccnc(N)n2)s1 [DABRAFENIB]
survival at 1000 mg/kg [1]: 64%

CN(C)CCOc1ccc(-c2nc(-c3ccncc3)c(-c3ccc4c(c3)CC/C4=N\O)[nH]2)cc1 [SB590885]
pEC50 (SK-MEL-2): 5.96 | pEC50 (HCT-116): 5.96

CCCS(=O)(=O)Nc1ccc(F)c(C(=O)c2c[nH]c3ncc(-c4ccc(Cl)cc4)cc23)c1F [VEMURAFENIB]
survival [2]: 84% | MTD [3]: 960 mg
